How the values were obtained:
Type in all cases: cell-based, human
[1] = test system: GDF15 mRNA; assay: qRT-PCR of GDF15 expression in drug-treated LN-229 cells
Method: (§1) Quantitative RT-PCR: Total RNA was isolated using the miRVana miRNA extraction kit (Ambion, Austin, Tex., USA). RNA was reverse transcribed using the High Capacity cDNA Reverse Transcription kit for mRNAs or TaqMan assays for microRNAs (Applied Biosystems, Carlsbad, Calif.). Quantitative real-time PCR was performed in duplicate using a Roche LightCycler 480 Real-Time PCR System (Indianapolis, Ind., USA). Each sample was normalized using GAPDH or RNU6B control (ΔCt) and relative quantification of gene expression was calculated using the comparative Ct (2^−ΔΔCt) method, as described in (Eletto et al., (2008) J. Cell. Physiol. 216: 764-770; Pacifici et al., (2013) J. Cell. Physiol. 228: 1070-1075; Rom et al., (2010) FASEB J. 24: 2292-2300 incorporated herein by reference in their entireties). For the clinical samples relative quantification was represented as 1/ΔCt to maintain real differences in Ct values between samples.
(§2) To further analyze the effects of fenofibrate on this gene, the human glioblastoma cell lines, LN-229 and U87MG were exposed to 50 μM fenofibrate and monitored the expression of GDF15 at 24 and 48 h time points. […] Following the treatment, total RNA was extracted and subjected to quantitative real-time PCR (qRT-PCR) using GDF15-specific and GAPDH-specific primers. The results in FIG. 6A show a 60- and 35-fold up-regulation of GDF15 gene expression in the two cell lines.

[2] = test system: miR-3189-3p; assay: qRT-PCR of miR-3189-3p expression in drug-treated LN-229 cells; settings: for miR-3189-3p relative expression compared to untreated cells: LN-229, 48 h (FIG. 6E)
Method: as §1

[3] = test system: miR-3189-5p; assay: qRT-PCR of miR-3189-5p expression in fenofibrate-treated LN-229 and U87MG cells; settings: fenofibrate treatment, 48 h
Method: as §1

[4] = test system: GDF15; assay: Western blot of GDF15 protein in fenofibrate-treated LN-229 cells; settings: LN-229, fenofibrate treatment
Method: (§3) Western Blot Analysis: Cells were collected by gently scraping in the presence of PBS (Gibco, Life Technologies), followed by centrifugation and disruption of the cell pellet in lysis buffer (50 mM HEPES, pH 7.5, 150 mM NaCl, 1.5 mM MgCl2, 1 mM EGTA, pH 8.4, 10% glycerol, 1% Triton X-100, 1 mM PMSF, 1 mM sodium orthovanadate (NA3VO4), Phosphatase and Protease Inhibitor Cocktails (Sigma). Whole-cell lysates (30 to 70 μg) were separated on a 4-15% SDS-PAGE gel (Bio-Rad, Hercules, Calif.). GDF15 and E2F-1 antibodies were purchased from Cell Signaling Technology (Beverly, Mass.). The antibody to detect p63RhoGEF was obtained from GeneTex (Irvine, Calif.). GDF15 antibody was purchased from R&D Systems (Minneapolis, Minn.), and anti-GRB2 was from BD Transduction Laboratories (San Jose, Calif.). SF3B2 and 14-3-3ζ antibodies were obtained from Santa Cruz Biotechnology.

[5] = test system: GDF15; assay: ELISA of secreted mature GDF15 in LN-229 culture medium; settings: LN-229, 48 h following treatment
Method: ELISA Assay: Mature GDF15 was detected in the cell culture medium using the GDF15 Quantikine ELISA kit from R&D Systems (Minneapolis, Minn.), according to the manufacturer's instructions. Sample absorbance was measured at 450 nm using a Bio-Rad Benchmark Plus microplate reader.

[6] = test system: Ago2 immunocomplexes; assay: RNA-binding protein immunoprecipitation (RIP) with Ago2 antibody; settings: extracts from FF-treated LN-229 cells
Method: RNA-Binding Protein Immunoprecipitation (RIP): RIP assay was performed using Argonaute 2 (Ago2) antibody from Millipore (RIPAb+Ago2 RIP). This kit included negative control mouse IgG antibody and control primers specific for human FOS, which were utilized for the optimization of Ago2-IP in the cellular model. The RIP Ago-IP was performed essentially as previously described (Curtale et al., (2013) Proc. Nat. Acad. Sci. U.S.A. 110: 11499-11504). In brief, 10×10^6 LN-229 cells were used for Ago2-IP and for the IgG isotype control; 2×10^6 cells were used for the extraction of total RNA and for total protein lysates. The cell monolayer was washed twice with cold PBS, and lysed in 500 μl of Lysis Buffer (150 mM KCl, 25 mM Tris-HCl pH 7.4, 5 mM EDTA, 0.5% NP40, 5 mM DTT) supplemented with 10 mM Protease Inhibitor Cocktail, 10 mM PMSF, 10 mM Phosphatase Inhibitor, 10 mM Na3VO4 and 100 U/ml RNase Inhibitor (Applied Biosystems). After 30 min of incubation on ice, lysates were centrifuged for 30 min at 14,000 rpm at 4° C. in a microcentrifuge. 30 μL of Protein A/G Magnetic Beads (Pierce, Thermo Scientific, Waltham, Mass.) were washed three times with Blocking Solution (0.5% BSA dissolved in DPBS+/+) and incubated for 1 h at 4° C. with 5 μg of anti-Ago2 mouse monoclonal IgG1κ or with isotype IgG1κ control antibodies (Millipore). The immunocomplexes were washed three times with Blocking Solution. […]

[7] = test system: GDF15 mRNA; assay: qRT-PCR of GDF15 expression in fenofibrate-treated U87MG cells; settings: 50 μM, 24 and 48 h time points
Method: as §1
as §2, with “The results in FIG. 6A show a 60- and 35-fold up-regulation of GDF15 gene expression in the two cell lines.” left out

[8] = test system: p63RhoGEF 3′UTR; assay: Dual luciferase assay, psiCHECK2/p63RhoGEF 3′UTR in LN-229 cells; settings: co-transfected with miR-3189-3p mimic
Excerpt: (§4) Cloning for microRNA Functional Analysis: The genomic sequence corresponding to the 3′UTR of p63RhoGEF was PCR amplified from LN-229 cells. This PCR product was ligated into the multiple cloning sites downstream of the Renilla luciferase reporter gene in the psiCHECK-2 vector (Promega, Madison, Wis.). This vector also contains a firefly luciferase reporter sequence, which allows for normalization of transfection efficiency. The primers used were: forward, 5′-[…] (SEQ ID NO: 7), containing the XhoI restriction site (underlined) and reverse, 5′-[…] (SEQ ID NO: 8), containing the NotI restriction site (underlined). The genomic sequence corresponding to the 3′UTR of SF3B2 was also cloned into the psiCHECK-2 vector. The primers used were: forward, 5′-[…] (SEQ ID NO: 9), containing the XhoI restriction site (underlined) and reverse, 5′-[…] (SEQ ID NO: 10) containing the NotI restriction site (underlined).
(§5) The oligonucleotides for the mutagenesis of p63RhoGEF sites were as follows: site 1 forward, 5′-[…] (SEQ ID NO: 11), site 2 forward, 5′-[…] (SEQ ID NO: 12), and site 3 forward, 5′-[…] (SEQ ID NO: 13). […]
(§6) After 24 h, cells were harvested and lysates were assayed for luciferase activity with the Dual-Luciferase Reporter Assay System (Promega) using a Synergy 2 microplate reader (BioTek Instruments, Inc., Winooski, Vt.). […]

[9] = test system: p63RhoGEF mRNA; assay: qRT-PCR of p63RhoGEF mRNA in transfected LN-229 and U87MG cells; settings: co-expressed with miR-3189-3p
Method: as §1

[10] = test system: SF3B2 mRNA; assay: qRT-PCR of SF3B2 mRNA in transfected LN-229 and U87MG cells; settings: co-expressed with miR-3189-3p
Method: as §1

[11] = test system: LN-229 and U87MG cells; assay: Cell proliferation assay (MTS)
Method: For transfection experiments, cells were seeded at a density of 4×10^5 cells/60 mm dish or 2.5×10^4 cells/well in 12-well plates, and transfected using Lipofectamine 2000 (Life Technologies, Grand Island, N.Y.) per manufacturer's instructions. SF3B2 and p63RhoGEF siRNAs and controls were purchased from Santa Cruz (Santa Cruz, Calif.), and were used at the final concentration of 10 nM. Human PPARα siRNA was the ON-TARGET plus SMART pool from Thermo Scientific Dharmacon (Lafayette, Colo.), and it was used at the final concentration of 100 nM. The PPARα […] WY146,43 was from Cayman Chemical (St. Louis, Mo.). For the transient transfection experiments, cells were seeded at a density of 4×10^5 cells/60 mm dish or 2.5×10^4 cells/well in 12-well plates, and transfected using Lipofectamine 2000 reagent (Life Technologies) per manufacturer's instructions.
At 72 h after transfection, cells were incubated with medium containing 3-(4,5-dimethylthiazol-2-yl)-5-(3-carboxymethoxyphenyl)-2-(4-sulfophenyl)-2H-tetrazolium (MTS) reagent (Promega) diluted according to manufacturer's instructions. Cells were then incubated at 37° C. for 30-60 min and absorbance was measured at a wavelength of 490 nm using a Bio-Rad Benchmark Plus microplate reader.

[12] = test system: LN-229 cells; assay: Rescue from fenofibrate-induced cell death; settings: LN-229 cells treated with fenofibrate
[13] = test system: SF3B2 3′UTR; assay: Dual luciferase assay, psiCHECK2/SF3B2 3′UTR in LN-229 cells; settings: co-transfected with miR-3189-3p mimic
Excerpt: as §4, §5, §6

[14] = test system: E2F-1; assay: Western blot of E2F-1 protein in LN-229 cells; settings: co-transfected with miR-3189-3p
Method: as §3

[15] = 48 h after treatment/transfection, with fenofibrate

Which results are given for `Cc1cccc(Nc2cc(Cl)nc(SCC(=O)O)n2)c1C` [WY146,43]?
impact on GDF15 levels triggered by fenofibrate [1, 15]: no significant impact; impact on miR-3189-3p levels triggered by fenofibrate [2, 15]: no significant impact

How did the “miR-3189-3p relative expression compared to untreated cells” value (“miR-3189-3p relative expression” below) [2] turn out when `COc1cccc2c1C(=O)c1c(O)c3c(c(O)c1C2=O)C[C@@](O)(C(=O)CO)C[C@@H]3O[C@H]1C[C@H](N)[C@H](O)[C@H](C)O1` [doxorubicin] was run?
The value was “only in fenofibrate treated cells”.

Which “expression of miR-3189-5p” value [3] does the source give for `CC(C)OC(=O)C(C)(C)Oc1ccc(C(=O)c2ccc(Cl)cc2)cc1` [fenofibrate, propan-2-yl 2-{4-[(4-chlorophenyl)carbonyl]phenoxy}-2-methylpropanoate] here?
The value was “did not change”.

What about the GDF15 protein content [4] of the same molecule?
Its GDF15 protein content is “large increase”.

And the “secreted GDF15” value [5]?
The value was “significant levels”.

And the “overexpression of miR-3189-3p linked to Ago2 immunocomplexes compared to untreated cells” value [6]?
The value was about 35 fold.

What about the “up-regulation of GDF15 gene expression” value ([1]; 50 μM, 24 and 48 h time points, LN-229) of the same molecule?
Its value is 60 fold.

What about the “GDF15 mRNA up-regulation relative to untreated cells” value ([1]; LN-229, 48 h, comparison with doxorubicin and paclitaxel (FIG. 6E)) of the same molecule?
Its value is “more than 60 folds”.

And the “up-regulation of GDF15 gene expression” value [7]?
Its value is 35 fold.

What about the “miR-3189-3p relative expression” value [2] of the same molecule?
Its value is 4.8 fold.

Which “miR-3189-3p relative expression” value [2] does the source give for `CC(=O)O[C@H]1C(=O)[C@@]2(C)[C@H]([C@H](OC(=O)c3ccccc3)[C@]3(O)C[C@H](OC(=O)[C@H](O)[C@@H](NC(=O)c4ccccc4)c4ccccc4)C(C)=C1C3(C)C)[C@]1(OC(C)=O)CO[C@@H]1C[C@@H]2O` [paclitaxel] here?
Its value is “only in fenofibrate treated cells”.

“anti-miR-3189-3p: miR-3189-3p mirVana miRNA inhibitor (SEQ ID NO: 22) purchased from Life Technologies (UGCCCCAUCUGUGCCCUGGGUAGGA; listed as RNA, chemistry not given here)” was tested. Which “effect on miR-3189-3p inhibition of p63RhoGEF 3′UTR reporter” value [8] did it give?
Its value is “efficiently reverted”.

What about the “effect on miR-3189-3p downregulation of p63RhoGEF transcript” value [9] of the same molecule?
The value was “counteracted”.

And the “effect on miR-3189-3p downregulation of SF3B2 transcript” value [10]?
Its value is “counteracted”.

What about the “changes in proliferation and cell cycle on co-transfection with miR-3189-3p” value ([11]; co-transfected with miR-3189-3p) of the same molecule?
The value was “No significant changes”.

What about the “rescue from fenofibrate-induced cell death” value [12] of the same molecule?
Its value is “did not rescue”.

What about the “effect on miR-3189-3p inhibition of SF3B2 3′UTR reporter” value [13] of the same molecule?
The value was “almost completely alleviated”.

What about the “effect on miR-3189-3p down-regulation of E2F-1” value [14] of the same molecule?
Its value is “reversed”.

With “miR-3189-5p: mature microRNA of 25 nucleotides from the miR-3189 stem-loop (SEQ ID NO: 21) (GUUGCCCCAUCUGUGCCCUGGGUAGGA; listed as RNA, chemistry not fully specified)” as the molecule, how does the “changes in cell morphology, cell proliferation and migration” value ([11]; transfection of LN-229 and U87MG cells) read?
The value was “did not elicit changes in cell morphology, nor inhibited cell proliferation and migration”.

From patent US10308939B2, “Use of an miRNA to reduce proliferation of a cancer cell” (Board of Supervisors of Louisiana State University and …, priority 2014, dated 2019)
